Data on two compounds can be found in patent US9856230B2 (University of Sunderland, priority 2012, dated 2018).

The nature of one data set: in vitro. The note with it: human, Viable Cells (%).
The target in data set [1] is T1, Trx system (thioredoxin/thioredoxin reductase) (Homo sapiens, UniProt Q16881).
T1 sequence (Q16881 151-649 limits assumed): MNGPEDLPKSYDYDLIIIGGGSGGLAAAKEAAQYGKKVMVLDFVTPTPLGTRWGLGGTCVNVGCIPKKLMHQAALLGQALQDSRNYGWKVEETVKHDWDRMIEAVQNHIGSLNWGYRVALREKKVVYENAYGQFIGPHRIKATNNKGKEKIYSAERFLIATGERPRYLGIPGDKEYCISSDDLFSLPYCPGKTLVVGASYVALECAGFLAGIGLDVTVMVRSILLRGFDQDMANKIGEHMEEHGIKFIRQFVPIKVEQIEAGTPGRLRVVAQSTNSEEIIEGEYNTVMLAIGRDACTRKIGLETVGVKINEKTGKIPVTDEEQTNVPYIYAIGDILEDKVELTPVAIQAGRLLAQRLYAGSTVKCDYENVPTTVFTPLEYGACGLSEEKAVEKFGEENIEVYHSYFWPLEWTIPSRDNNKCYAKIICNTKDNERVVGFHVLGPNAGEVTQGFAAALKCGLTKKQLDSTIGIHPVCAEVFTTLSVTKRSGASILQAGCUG
The data set can be described thus: Thioredoxin/thioredoxin reductase insulin reduction assay. The data set is classed as biochemical. The note with it: for inhibition at 500 µM: compound at 500 μM, read-out: Inhib. (%) Trx Syst. at 500 μM. On the procedure: Thioredoxin/thioredoxin reductase inhibition was measured using the insulin reduction assay (Stevens, M. F. G., Pallis, M., Bradshaw, T. D., Westwell, A. D., Grundy, M., Russell, N, “Induction of apoptosis without redox catastrophe by thioredoxin-inhibitory compounds”, Biochem. Pharmacol. (2003) 66, 1695-1705). […] The first part of the assay involves TrxR reducing oxidized Trx via NADPH. The reduced Trx then reduces disulfide bonds in the insulin, leaving exposed thiol groups, as summarized by the Trx reaction scheme.
The addition of dithionitrobenzoic acid (DTNB) to the free thiol groups of the insulin cleaves the disulfide bond in the DTNB which gives rise to a yellow colour (DTNB reaction scheme). The yellow colour is observed under basic conditions due to the conjugation of electrons between the thiolate anion and the nitro group of thionitrobenzoic acid (TNB). The level of thioredoxin/thioredoxin reductase inhibitory activity is […] proportional to the intensity of the yellow colour.
Addition of DTNB to reduced insulin produces thionitrobenzoic acid (TNB) and a mixed insulin disulfide. DTNB has very little absorbance, but under mild basic conditions TNB forms an anion that gives an intense yellow colour at 412 nm.
Synthesized compounds were tested for thioredoxin/thioredoxin reductase activity using the thioredoxin/thioredoxin reductase insulin assay described above under the heading “Assays”. The compounds were also tested for antiproliferative activity using the MTT assay described above under the heading “Assays”. Theoretical C log P values for the compounds were calculated using ChemDraw. The C log P of a compound is the logarithm of the compound's partition coefficient between n-octanol and water log(coctanol/cwater) and represents a measure of the compound's hydrophilicity and hydrophobicity. […]

In data set [2] the test system is HPV-16 immortalized keratinocyte cell line (CCD-1106 KERTr). The data set can be described thus: cells. To be noted: Homo sapiens; CCD-1106 KERTr keratinocytes; read-out: MTT GI50. The data set is classed as cell-based.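 Further: growth inhibition read as spectrophotometric formazan colour from mitochondrial dehydrogenase cleavage of MTT, proportional to viable cell number, modelling psoriatic hyperproliferation, lower values mean stronger antiproliferative activity.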
Text: The assay is based on the ability of a mitochondrial dehydrogenase enzyme to cleave the tetrazolium rings of the yellow MTT to form dark blue formazan crystals (MTT reaction scheme). These crystals are mostly impermeable to cell membranes and, consequently, they accumulate in healthy viable cells. The addition of detergent solubilizes the cells, which results in the liberation of purple formazan crystals. The number of viable cells is directly proportional to the level of purple formazan produced. This colour change can be measured by a spectrophotometer enabling quantification of changes in cellular proliferation. Compound activity measured by the MTT assay (or other proliferation related assay) may be given as a GI50 value.
A human papilloma virus-16 (HPV-16) immortalized keratinocyte cell line (CCD-1106 KERTr) was used in the MTT cell viability assay.
Antiproliferative activity is indicated by the MTT GI50 (μM), where a lower value indicates higher activity.
Data set [3] has as its system human T-cells.
Text: (§1) To determine if the analogues were causing apoptosis or necrosis, an Annexin V-Pe assay was used. […] The annexin V is attached to a fluorescent probe that is used for detection by flow cytometry. […] The assay is also used in conjugation with 7-aminoactinomycin D (7-AAD). […] As the plasma membrane becomes increasingly permeable, 7-AAD can move readily across the cell membrane and bind to cellular DNA, thereby providing a way of identifying cells that have lost their membrane integrity; however, when the cell is viable or undergoing early stages of apoptosis, it is impermeable to 7-AAD.
Data set [4] deals with human T-cells. The data set can be described thus: Annexin V-Pe assay (apoptosis/necrosis).
Text: as §1
In data set [5] the test system is human T-cells. The data set can be described thus: CFSE proliferation assay. The format is cell-based. The note with it: 2000 ng per mL. The text has this: Carboxyfluorescein diacetate succinimidyl ester (56a) (CFSE) is a cell permeable compound which readily enters the cell, upon which, the ester group is cleaved by esterases to produce a fluorescent compound (known as carboxyfluorescein succinimidyl ester (56b)) that is less cell permeable (see CFSE reaction scheme). As cells divide, the carboxyfluorescein succinimidyl ester (56b) is split equally between the daughter cells, which results in reduced carboxyfluorescein succinimidyl ester (56b) signal detection with each subsequent cell division (FIG. 2). The attenuation of the signal gives an indication of the proliferative ability of the cells.
For a compound to show good antiproliferative properties in the CFSE assay, the majority of the cells should remain in the parent state (as per division 0 in FIG. 2). […] As cell division occurs, the carboxyfluorescein succinimidyl ester (56b) is split equally between daughter cells, which results in attenuated signal detection.
CFSE labeled T-cells were treated with compound (33f) or control (no compound added). In the control experiment the majority of cells reached the fifth division (proliferation index of 5.62). […] The PI is the sum of the cells in all generations divided by the calculated number of the original parent cells.

Text for in vitro: as §1

One may read the viability as a per cent measure of how many cells are alive, often set against a control. High values mean less harm to the cells, low ones more harm to the cells. As a reminder, the IC50 is the concentration that gives 50% inhibition. By GI50 is commonly meant the concentration at which growth is held to half of that of the control. As to `Cc1ccc(S(=O)(=O)Nc2ccc(NC(=O)c3ccco3)cc2NS(=O)(=O)c2ccc(C)cc2)cc1` [Compound (33f), N-(3,4-bis-(toluene-4-sulfonylamino)phenyl)-2-furamide], in the data set “in vitro”, the viability is 37%. Besides, the inhibition at 500 µM in data set [1] was found to be 93.7%. In addition, in data set [1] (insulin reduction assay, read-out: Trx System IC50), the IC50 worked out at 37 µM. In addition, the GI50 in data set [2] was 10.8 µM. The “Viable Cells (%)” value with human T-cells [3] is listed as 46%. In the data set with human T-cells [4] (annexin V positive, 7-AAD negative, control 29), the “Early Apoptotic Cells (%)” value is recorded as 31%. The “Late Apoptotic/Necrotic Cells (%)” value in the data set on human T-cells [4] (stain with both reagents, control 15) was 13%. For the same compound, in the data set on human T-cells [5] (control: majority reached the fifth division), the “division state of CFSE labeled T-cells” value is “the majority of cells remained in the parent state”. Besides, the “proliferation index (PI)” value in the data set on human T-cells [5] (CFSE labeled T-cells, control 5.62) was 1.36.
Regarding `Cc1ccc(S(=O)(=O)Nc2ccc(C(=O)O)cc2NS(=O)(=O)c2ccc(C)cc2)cc1` [(35), 3,4-bis-(toluene-4-sulfonylamino)benzoic acid], the inhibition at 500 µM in data set [1] came to 20%. Further, in data set [2], the GI50 was 67.3 µM.
